From patent US9173864B2, “Treatment and/or prevention of inner ear conditions by modulation of a metabotropic glutamate receptor” (House Ear Institute, priority 2008, dated 2015)

System: patients with symptoms of presbycusis
Assay: Administration of FTIDC to patients with presbycusis (Example 5)
Type: in vivo, human
Settings: person; for hearing threshold, left ear / hearing threshold, right ear: after 14 days
Method: A person presents with symptoms of presbycusis, including moderate loss of higher frequency (above 2000 Hz) hearing (50 decibel threshold) in both ears. The person is administered two drops per ear twice daily of a topical otic formulation comprising 10 ug/ml of FTIDC in a phosphate-buffered saline and further comprising 0.25% the carboxyvinyl water swellable gelling agent, Carbopol 934P; i.e., about […] of FTIDC per ear per dosing. After 14 days, the patient is tested by an audiologist. The threshold is lowered to 35 decibels right ear and 40 decibels left ear.
A person presents with symptoms of presbycusis, including loss of moderately high frequency (above 1000 Hz) hearing (40 decibel threshold right ear and 35 decibel threshold left ear). The person is administered an oral formulation 4 times per day comprising 2 ug per dose of FTIDC. The extended release capsule comprises a matrix of 10% by weight hydroxypropyl methylcellulose (e.g., Methocel®; Dow Chemical Company, U.S.A), and 50% by weight of a cornstarch filler. After 14 days, the threshold is lowered to 35 decibels right ear and 25 decibels left ear.
A person presents with symptoms of presbycusis, including loss of hearing in the 500 to above 2000 Hz range. The person is implanted with an Alset® osmotic pump adapted for cochlear delivery; see e.g., Richardson, R. T., Noushi, F., O'Leary, S. Inner ear therapy for neural preservation. AUDIOLOGY AND NEURO-OTOLOGY 2006; 11(6): 343-356. The pump is supplied with an aqueous sterile solution comprising FTIDC. The pump delivers a dose of 10 ug/hour of the modulator.

[1] = higher frequency (above 2000 Hz) loss, 50 decibel threshold before, topical otic drops 10 ug/ml twice daily

Question: What does the source list for `Cc1c(C2=CCN(C(=O)N(C)C(C)C)CC2)nnn1-c1cccnc1F` [FTIDC, 4-[1-(2-fluoropyridin-3-yl)-5-methyl-1H-1,2,3-triazol-4-yl]-N-isopropyl-N-methyl-3,6-dihydropyridine-1(2H)-carboxamide]?
Answer: hearing threshold, left ear (above 1000 Hz loss, 35 decibel threshold before, oral extended release capsule 2 ug per dose 4 times per day): 25 decibels; hearing threshold, right ear (above 1000 Hz loss, 40 decibel threshold before, oral extended release capsule 2 ug per dose 4 times per day): 35 decibels; hearing threshold, left ear [1]: 40 decibels; hearing threshold, right ear [1]: 35 decibels; hearing (loss in 500 to above 2000 Hz range, osmotic pump cochlear delivery 10 ug/hour, after 10 days): hearing is improved in both ears
